# Values of other authors, collected in PMC12181400, “Leveraging viral genome sequences and machine learning models for identification of potentially selective antiviral agents” (Communications Chemistry, 2025).
# Where a name gives a salt, the structure may show the parent alone. Read-outs that look alike come from different tables or passages of the source.
# Legend:
# Settings in all cases: cited from earlier work
# [1] = test system: cell viability (tox21-ap1-agonist-p1)
# [2] = test system: cell viability (tox21-car-agonist-p1)
# [3] = test system: cell viability (tox21-ar-mda-kb2-luc-antagonist-p2)
# [4] = test system: cell viability (tox21-ar-mda-kb2-luc-agonist-p3)
# [5] = test system: cell viability (tox21-car-antagonist-p1)
# [6] = test system: cell viability (tox21-are-bla-p1)
# [7] = curve rank −9 to 9, 0 = inactive, ref NCATS Tox21 public data browser
SMILES,tox21-ap1-agonist-p1-viability (curve rank) [1],tox21-car-agonist-p1-viability (curve rank) [2],tox21-ar-mda-kb2-luc-antagonist-p2-viability (curve rank) [3],tox21-ar-mda-kb2-luc-agonist-p3-viability (curve rank) [4],tox21-car-antagonist-p1-viability (curve rank) [5],tox21-are-bla-p1-viability (curve rank) [6],"tox21-ap1-agonist-p1-viability (curve rank) [1, 7]","tox21-car-agonist-p1-viability (curve rank) [2, 7]","tox21-ar-mda-kb2-luc-antagonist-p2-viability (curve rank) [3, 7]","tox21-ar-mda-kb2-luc-agonist-p3-viability (curve rank) [4, 7]","tox21-car-antagonist-p1-viability (curve rank) [5, 7]","tox21-are-bla-p1-viability (curve rank) [6, 7]"
CN(C)CCn1nnnc1SCC1=C(C(=O)O)N2C(=O)[C@@H](NC(=O)Cc3csc(N)n3)[C@H]2SC1 [Cefotiam hydrochloride],0,0,0,0,0,0,–,–,–,–,–,–
CC[N+]1(C)CCCC(OC(=O)C(O)(c2ccccc2)c2ccccc2)C1 (stereo not drawn) [Pipenzolate bromide],0,0,0,0,0,0,–,–,–,–,–,–
Cc1oncc1C(=O)Nc1ccc(C(F)(F)F)cc1 [Leflunomide],0,0,0,0,0,0,–,–,–,–,–,–
NC(=O)c1ccc([N+](=O)[O-])cc1Cl [2-Chloro-4-nitrobenzamide],–,–,–,–,–,–,0,0,0,0,0,0
Cc1ncsc1CCCl [Clomethiazole],–,–,–,–,–,–,0,0,0,0,0,0
CN1C(C(=O)Nc2ccccn2)=C(O)c2ccccc2S1(=O)=O [Piroxicam],0,0,0,0,0,0,–,–,–,–,–,–
CO[C@@]1(NC(=O)CSCC#N)C(=O)N2C(C(=O)O)=C(CSc3nnnn3C)CS[C@@H]21 [Cefmetazole sodium],-0.67,0,0,0,0,0,–,–,–,–,–,–
Nc1c2c(nc3ccccc13)CCCC2O.O=C(O)/C=C\C(=O)O (stereo not drawn) [Hydroxytacrine maleate],–,–,–,–,–,–,0,0,0,0,0,0
CC(C)(Sc1cc(C(C)(C)C)c(O)c(C(C)(C)C)c1)Sc1cc(C(C)(C)C)c(O)c(C(C)(C)C)c1 [Probucol],0,0,0,0,0,0,–,–,–,–,–,–
Cc1ccc(S(=O)(=O)NC(=O)NN2CC3CCCC3C2)cc1 (stereo not drawn) [Gliclazide],0,0,0,0,0,0,–,–,–,–,–,–
Cc1cc(O)ccc1Cl [4-Chloro-3-methylphenol],–,–,–,–,–,–,0,0,0,0,0,0
